# Laboratory results as given in patent US8022052B2, “Inhibition of PPAR gamma expression by specific osteogenic oxysterols” (The Regents of the University of California, priority 2006, dated 2011).
# “Also recorded” adds a separate entry of the source.
# Columns and labels:
# [1] = test system: M2-10B4 (M2) murine pluripotent bone MSC line; assay: Tro-induced adipocyte formation in M2 cells, Oil red O staining; type: cell-based, mouse; conditions: M2 cells, 10 μM Tro, oxysterol 5 μM, 10 days
# Experimental: (§1) M2 mouse MSCs were purchased from American Type Culture Collection (ATCC, Rockville, Md., USA). […] Cell culture was performed in 24- and 6-well plates for adipogenic differentiation and gene expression studies, respectively, and treatment with test agents was done in growth medium.
# Oil red O staining for detection of adipocytes was performed as previously described. […] The number of adipocytes was quantitated by counting Oil red O-positive cells in five separate fields per well, in three wells per experimental condition. The results are reported as the mean of triplicate determination ±SD.
# (§2) Adipocyte formation was examined by Oil red O staining. […] PPARγ expression was assessed by RT-qPCR after treating M2 cells with Tro in the presence or absence of 20S. […] M2 cells at confluence were treated with control vehicle, 10 μM Tro, or 5 μM 20S, alone or in combination for 24 hours (FIG. 2A), 48 hours (FIG. 2B), and 96 hours (FIG. 2C). PPARγ mRNA expression was measured by quantitative real-time PCR.
# (§3) After 10 days, adipocyte formation was measured by Oil red O staining. The number of adipocytes was determined by counting Oil red O-positive cells in five separate fields per well, in three wells per experimental condition. […] After 48 h, PPARγ mRNA expression was measured by quantitative real-time PCR. […] Luciferase activity was measured after 24 h and normalized for transfection efficiency using the Renilla luciferase activity.
# Synthetic oxysterol compounds were studied for inhibition of adipogenesis and PPAR expression. […] After 10 days of treatment, cells were stained with Oil-red-O to detect adipocytes, and the number of positively stained cells was determined using light microscopy. Data from a representative experiment are reported as the mean of triplicate determination (average of five fields per well, 3 wells per experimental condition) ±SD.
# PPARγ [2] = assay: PPARγ mRNA expression in M2 cells by RT-qPCR; type: cell-based, mouse; conditions: M2 cells, 10 μM Tro, oxysterol 5 μM; 24, 48, 96 h (20S), 48 h (Oxy13)
# Experimental: as §1
# (§4) Total RNA was extracted with the RNA isolation kit from Stratagene (La Jolla, Calif., USA) according to the manufacturer's instructions. RNA was DNase-treated using DNA-free kit from Ambion (Austin, Tex., USA). Three micrograms of RNA was reverse-transcribed using reverse transcriptase from Stratagene to make single-stranded cDNA. The cDNA was mixed with Qi SYBR Green Supermix (Bio-Rad) for quantitative RT-PCR assay using a Bio-Rad I-cycler IQ quantitative thermocycler. All PCR samples were prepared in triplicate wells of a 96-well plate. After 40 cycles of PCR, melt curves were examined to ensure primer specificity. Fold changes in gene expression were calculated using the ΔΔCt method. […] Primers used are as follows: PPARγ2 (5′-[…]-3′ and 5′-[…]-3′), C/EBPα (5′-[…]-3′ and 5′-[…]-3′), ap2 (5′-[…]-3′ and 5′-[…]-3′), LPL (5′-[…]-3′ and 5′-[…]-[…]), GATA2 (5′-[…]-3′ and 5′-[…]-3′), GATA3 (5′-[…]-3′ and 5′-[…]-3′), GILZ (5′-[…]-3′ and 5′-[…]-3′), and pref-1 (5′-[…]-3′ and 5′-[…]-3′).
# as §2, §3
# After 48 hours of treatment, RNA was extracted from cells and analyzed for PPARγ expression by Q-RT-PCR. Data from a representative experiment, normalized to GAPDH expression, are reported as the mean of triplicate determinations ±SD.
# C/EBPα = C/EBPα mRNA expression in M2 cells by quantitative real-time PCR; type: cell-based, mouse; conditions: 10 μM Tro, 5 μM 20S, 24, 48, 96 hours
# Experimental: . M2 cells at confluence were treated with control vehicle, 10 μM Tro, or 5 μM 20S, alone or in combination for 24 (FIG. 3A), 48 (FIG. 3B), and 96 (FIG. 3C) hours. C/EBPα mRNA expression was measured by quantitative real-time PCR. Fold changes in gene expression relative to the control were calculated using the ΔΔCt method and reported as the mean of triplicate determination ±SD (p<0.0001 for Tro vs. control and p<0.001 for Tro+20S vs. control at 24 hours (FIG. 3A); p<0.0001 for Tro vs. control and p<0.001 for Tro+20S vs. control at 48 hours (FIG. 3B); p<0.0001 for Tro or Tro+20S vs. control at 96 hours (FIG. 3C).
# aP2 = aP2 mRNA expression in M2 cells by quantitative real-time PCR; type: cell-based, mouse; conditions: 10 μM Tro, 5 μM 20S, 24, 48, 96 hours
# Experimental: . M2 cells at confluence were treated with control vehicle, 10 μM Tro, or 5 μM 20S, alone or in combination for 24 hours (FIG. 4A), 48 hours (FIG. 4B), and 96 hours (FIG. 4C). aP2 mRNA expression was measured by quantitative real-time PCR. Fold changes in gene expression relative to the control were calculated using the ΔΔCt method and reported as the mean of triplicate determination ±SD (p<0.0001 for Tro or Tro+20S vs. control or 20S and p<0.01 for Tro vs. Tro+20S at 24 hours (FIG. 4A); p<0.0001 for Tro or Tro+20S vs. control or 20S and for Tro vs. Tro+20S at 48 hours (FIG. 4B); p<0.0001 for Tro vs. control, 20S, or Tro+20S and p<0.001 for Tro+20S vs. control or 20S at 96 hours (FIG. 4C)).
# PPARγ [3] = assay: PPRE luciferase reporter assay (PPARγ transcriptional activity) in M2 cells; type: cell-based, mouse
# Source text: (§5) M2 cells at 70% confluency in a 24-well plate were transiently transfected with: a plasmid containing three tandem repeats of the PPAR response element (PPRE) upstream of the basic thymidine kinase promoter (p3xPPRE-TK-Luciferase), a control pTK-Luciferase plasmid devoid of PPRE, a CMX-PPARγ expression plasmid (all kind gifts of Dr Peter Tontonoz), a CMX-RXRα expression plasmid (kind gift of Dr Sotirios Tetradis), and a pTK-Renilla-Luciferase plasmid (Promega, Madison, Wis., USA) using Fugene 6 Transfection Reagents from Roche (Indianapolis, Ind., USA). Luciferase activity assay was performed using Dual-Luciferase Reporter 1000 Assay System (Promega, Madison, Wis., USA). Luciferase reporter activity was normalized to Renilla Luciferase activity. […] For GATA reporter assays, M2 cells were transfected with a GATA Luciferase reporter vector or a control reporter vector (both from Panomics, Fremont, Calif., USA), and pTK-Renilla-Luciferase plasmid.
# M2 cells were transiently transfected with a reporter construct containing three tandem repeats of a PPRE (pTK-3×PPRE-Luciferase) or the control plasmid (pTK-Luciferase). Cells were treated with 10 μM Tro or control vehicle, and luciferase activity was measured after 24 and 48 h. […] Because PPARγ and retinoid X receptor (RXR) form obligatory heterodimers, we studied whether 20S would have an effect when both PPARγ and RXRα were overexpressed. […] Luciferase activity was measured after 24 hours and normalized for transfection efficiency using the Renilla luciferase activity. […] Luciferase activity was normalized for transfection efficiency using the Renilla luciferase activity. […] Luciferase activity was measured after 24 hours and normalized to the Renilla luciferase activity.
# murine PPARγ2 promoter = assay: PPARγ2 promoter luciferase activity induced by C/EBPα overexpression in M2 cells; type: cell-based, mouse; conditions: p19-PPARγ2 with MSV-C/EBPα plasmid, 24 h
# Experimental: For PPARγ promoter activity assays, M2 cells were transiently transfected with a murine PPARγ2 promoter construct luciferase plasmid (p19-PPARγ2; (kind gift of Dr Steven McKnight), along with MSV-C/EBPα overexpression plasmid (kind gift of Dr. Sophia Tsai) and pTK-Renilla-Luciferase plasmid. Luciferase activity was measured after 24 h and normalized for transfection efficiency using the Renilla Luciferase activity.
# To determine if 20S and Shh inhibit PPARγ expression by acting directly on its promoter, we focused on C/EBPα regulated PPARγ promoter activity.
# as §3
# [4] = test system: GATA2, GATA3, Gilz, and pref-1; assay: GATA2, GATA3, Gilz and pref-1 expression in M2 cells by RT-qPCR; type: cell-based, mouse; conditions: 24 and 48 h, data not shown
# Source text: as §4
# GATA = GATA luciferase reporter in M2 cells; type: cell-based, mouse; conditions: 24 and 48 h, data not shown
# Source text: as §5
# LXRs = assay: LXR activation in M2 cells; type: cell-based, mouse; conditions: data not shown
# [5] = test system: M2-10B4 (M2) murine pluripotent bone MSC line; conditions: cited from earlier work
structure (smiles),measurement,setting,value
"CC(C)CCC[C@](C)(O)[C@H]1CC[C@H]2[C@@H]3CC=C4C[C@@H](O)CC[C@]4(C)[C@H]3CC[C@@]21C [Oxy 20S, 20(S)-hydroxycholesterol]",inhibition of Tro-induced adipocyte formation,[1],completely inhibited; also recorded: significantly inhibited
same,inhibition of Tro-induced PPARγ mRNA expression,PPARγ [2],completely inhibited; also recorded: almost completely blocked; also recorded: specifically inhibited; also recorded: inhibits
same,effect of 20S on Tro-induced C/EBPα mRNA expression,C/EBPα,did not inhibit
same,effect of 20S on Tro-induced aP2 mRNA expression,aP2,inhibited
same,effect of 20S on Tro-induced PPRE reporter activity (PPARγ transcriptional activity),PPARγ [3]; M2 cells overexpressing PPARγ,did not inhibit but rather enhanced; also recorded: not inhibited but rather enhanced; also recorded: does not inhibit
same,effect of 20S on PPARγ-RXRα induced PPRE reporter activity,"PPARγ [3]; M2 cells overexpressing PPARγ and RXRα, 24 hours",did not inhibit; also recorded: enhanced
same,effect of 20S on Tro-induced PPRE reporter activity,"PPARγ [3]; M2 cells without PPARγ overexpression, 24 hours","did not inhibit Tro-induced PPRE reporter activity, but instead caused a small but significant increase"
same,inhibition of PPARγ2 promoter activity induced by C/EBPα overexpression,murine PPARγ2 promoter,greatly inhibited; also recorded: inhibit; also recorded: significantly inhibited
same,"GATA2/GATA3, Gilz, and pref-1 gene expression",[4],does not increase
same,GATA transcriptional activity,GATA,does not increase
same,activation of LXRs,LXRs,activation
same,adipogenic differentiation of M2 cells (previously reported),[5],inhibit
